Experimental data taken from PMC3394770, “Ipomoelin, a Jacalin-Related Lectin with a Compact Tetrameric Association and Versatile Carbohydrate Binding Properties Regulated by Its N Terminus” (PLoS ONE, 2012).
Read-outs that look alike come from different tables or passages of the source. Values belong to the molecule of their own block, whether it stands above or below them.

Legend:
[1] = biological target: T1, IPO (Ipomoelin) (Ipomoea batatas, UniProt P93193); test: isothermal titration calorimetry, one-site fit; format: binding; conditions: for Kd: read-out: K A(10^3 M^-1) (converted)
T1 construct: full length (residues 1-154), His-tagged, expressed in E. coli BL21(DE3) from pTZ18UH-IPO
T1 sequence (P93193 1-154): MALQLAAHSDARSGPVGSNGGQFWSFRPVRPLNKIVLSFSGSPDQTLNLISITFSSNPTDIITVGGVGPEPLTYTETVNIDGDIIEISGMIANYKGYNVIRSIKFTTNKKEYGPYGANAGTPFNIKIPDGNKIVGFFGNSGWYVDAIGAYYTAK

[2] = biological target: T2, ΔN10IPO (Ipomoea batatas, UniProt P93193); test: isothermal titration calorimetry, one-site fit; format: binding; conditions: 20 mM Tris-HCl, 150 mM NaCl pH 7.0, 25 °C; n fixed at 1.0; read-out: K A(10^3 M^-1) (converted)
T2 construct: gene IPO; N-terminal residues 1-10 removed, Histrap-purified, expressed in E. coli BL21(DE3) from pTZ18UH-ΔN10IPO
From the text: isothermal titration calorimetry, one-site fit on ΔN10IPO

[3] = biological target: the molecule itself; test: crystal structure; hanging-drop vapor diffusion at room temperature; apo IPO and co-crystals with Me-Man, Me-Glc and Me-Gal in four space groups; tetramer in the asymmetric unit or by symmetric operations; interface analysed on IPO–Me-Glc with PDBe PISA
[4] = 20 mM Tris-HCl, 150 mM NaCl pH 7.0, 25 °C, n fixed at 1.0

Molecule: OC[C@H]1OC(O)[C@H](O)[C@@H](O)[C@H]1O (stereo partly drawn) [Gal]
- KA [1, 4]: 0.57×10^2

Molecule: OC[C@H]1OC(O)[C@H](O)[C@@H](O)[C@@H]1O (stereo partly drawn) [Glc]
- KA [1, 4]: 0.32×10^2

Molecule: OC[C@H]1OC(O)[C@@H](O)[C@@H](O)[C@@H]1O (stereo partly drawn) [Man]
- KA [1, 4]: 1.05×10^2

B1: Ipomoelin (IPO) (natural protein, UniProt P93193 1-154, looked up)
chain: MALQLAAHSDARSGPVGSNGGQFWSFRPVRPLNKIVLSFSGSPDQTLNLISITFSSNPTDIITVGGVGPEPLTYTETVNIDGDIIEISGMIANYKGYNVIRSIKFTTNKKEYGPYGANAGTPFNIKIPDGNKIVGFFGNSGWYVDAIGAYYTAK
notes: Ipomoelin (IPO), Jacalin-related lectin of sweet potato (Ipomoea batatas cv. Tainung 57); gene GenBank D89823.1, protein GenBank BAA14024.1; monomer of residues 1 to 154; recombinant IPO with a His tag is 17.3 kDa as a monomer and 69.2 kDa as a tetramer; also called wildtype IPO; native IPO; source: E. coli BL21 (DE3), purified (Histrap FF)
- stoichiometry N [3]: 4

More lines, now with the values ahead:

- Kd [1]: 244 µM
Molecule: CO[C@H]1O[C@H](CO)[C@H](O)[C@H](O)[C@H]1O [Me-Gal, methyl α-D-galactopyranoside]

- Kd [2]: 73.5 µM
- Kd [1, 4]: 498 µM
Molecule: CO[C@H]1O[C@H](CO)[C@@H](O)[C@H](O)[C@H]1O [Me-Glc, methyl α-D-glucopyranoside]

- Kd [2]: 26.4 µM
- Kd [1, 4]: 142 µM
Molecule: CO[C@H]1O[C@H](CO)[C@@H](O)[C@H](O)[C@@H]1O [Me-Man, methyl α-D-mannopyranoside]
